Assay results: US5770688A, “Method and composition for the treatment of mammalian HIV infection” (GSF-Forschungszentrum fur Umwelt und Gesundheit GmbH, priority 1989, dated 1998)

How the values were obtained:
Rauscher leukemia virus = assay: Example 2: Rauscher leukemia virus (RLV) model; assay type: in vivo, Balb/c mice
Text: As noted earlier, the Rauscher leukemia virus (RLV) model has been used successfully to test a number of compounds like nucleoside analogues, that is, AZT, and which has been utilized, heretofore, to inhibit HIV replication. This is discussed in further detail in the article authored by R. M. Ruprechet, et. al. and which is entitled Development of Antiviral Treatment Strategies in Murin Models, RES. Human Retroviruses, 8,997-1011 (1992). Those skilled in the art will recognized that RLV belongs to the Onkoviruses, which is a subfamily of the retrovirus family, and not to the Lentiviruses family, such as is the case with HIV. Therefore, the RLV model provides a suitable basis upon which one may test substances which interfere with the replication steps which are common, or similar, among related retroviruses. As noted earlier, inasmuch as the melittin (Seq. ID NO:1) appears to inhibit HIV transcription in vitro, then it appears that RLV is a suitable model to test the effect of melittin on in vivo replication inhibition.
The source of virus for the present example was secured from the leukemic spleens of RLV infected Balb/c mice. The virus titer of the pool of leukemic spleens was determined by titration. This titration method is discussed in the article authored by Schmidt et al., "Endogenous Murine Leukemia Viruses: frequency of radiation-activation and novel pathogenic effects of viral isolates." Leukemia Research 12, 393-403, (1988). The spleens were secured from 8 to 10 week old inbreed female Balb/c mice, and further from in mouse embryo fibroblasts. As noted earlier, virus replication in mice normally has been determined by the development of leukemia in the spleen. Additionally, the determination of in vitro virus replication has been measured heretofore by the number of virus protein producing cells which are stained with anti-RLV antibodies in an immuno-peroxidase staining test (IPF). Aliquots of the virus solutions were stored in liquid nitrogen and were again titrated in the fashion as noted above.
Stock virus solutions were diluted to provide solutions having a virus concentration of approximately 7×10^6 infectious units per milliliter. Following preparation of the solutions, 0.5 ml of these viral solutions were injected intraperitoneally (ip) into Balb/c mice that were 8 to 10 weeks old. […] As will be recognized by a study of FIG. 43 and FIG. 48, and following infection with the RLV, nearly 100% of the mice developed leukemia (splenomegaly) within approximately three weeks. […] The mean spleen weight development became less prominent. This is best seen by reference to FIG. 48 and in particular groups 8, 9 and 10.

[1] = system: feline immunodeficiency virus (FIV); assay: Example 3: FIV replication in naturally infected cats, quantitative FIV-PCR; assay type: in vivo
Description: To further investigate the effects of melittin (Seq. ID NO:1) on virus replication in retroviral infected cells or the inhibition of retroviral infected cell growth, a series of experiments were conducted utilizing cats which were naturally infected with the feline immunodeficiency virus (FIV). FIV is in its genomic and viral structure, in many respects, very similar to the human immunodeficiency virus (HIV). Therefore, it is widely regarded as similar to HIV, that is, it is a member of the Lentivirus subfamily, of the retrovirus family. Further, it has been determined that experimentally and naturally infected cats having FIV, display very similar disease characteristics such as immunedysfunction or other neurological disorders which can be taken as a relevant model for HIV infection in humans. This is discussed in greater detail in the article authored by Egberink et. al. "Suppression of feline immuno-deficiency virus infection in vivo by 9-(2-phosphonomethoxyethyl)adenine," Proc. Natl. Acad. Sci. 87, 3087-3091 (1990).
In the following series of experiments, two naturally FIV infected cats (M and G) were used. These particular cats were kept for more than one year under constant observation in the Clinic for Internal Medicine at the Veterinary School in Munich, Germany before the onset of melittin (Seq. ID NO:1) treatment. In each cat, FIV infection had been confirmed by detecting an antibody ELISA. In this regard, a test marketed under the tradename PetChek® and which is available from the same company in Portland, Maine was employed. As best seen in FIG. 53. The antibody titer against FIV in both cats was approximately 1:50. As a general matter, the overall physical condition of both cats was good during the observation period. Further and during the experiment, cat M developed shortly before melittin treatment a pneumonitis which was not treated in a conventional fashion. The individual body weights of each cat at the beginning of melittin treatment was 4 kilograms and 2.2 kilograms for cats M and G, respectively.
During the experiment it was determined that detectable blood serum levels of melittin (Seq. ID NO:1) of about 5 ng/ml could be detected following an injection of melittin equal to […] a few minutes after injection. […] In vitro data has shown that melittin, after this time interval, is found within the cells where it can be detected in tact for more than 48 hours. The LD50 (lethal dose where 50% of the animals perish) for melittin is not known for cats. […] The quantitative effect of melittin on FIV replication was determined quantitatively by utilizing FIV-PCR employing nested primers from the gag region. Quantification was based upon the determination of amplified product in identical samples which have been amplified after different cycle times. […]

[2] = all treated groups, regardless of schedule
[3] = group 1, after infection, intervals of 4 days
[4] = group 2, after infection, intervals of 2 days
[5] = group 3, after infection, daily

**Q.** Which “animals that developed leukemia” value (Rauscher leukemia virus; [2]) does the source give for “Gly-Ile-Gly-Ala-Val-Leu-Lys-Val-Leu-Thr-Thr-Gly-Leu-Pro-Ala-Leu-Ile-Ser-Trp-Ile-Lys-Arg-Lys-Arg-Gln-Gln-Amide [melittin]” here?
**A.** 70%

**Q.** And the mean spleen weight (Rauscher leukemia virus; [2])?
**A.** 1.2 grams

**Q.** And the “spleen weights, treated vs untreated, in words” value (Rauscher leukemia virus; days 5 and 10, five administrations before and six after infection)?
**A.** quite similar with only a slight difference appearing on day 10

**Q.** What about the “leukemic animals, in words” value (Rauscher leukemia virus; days 5 and 15 (so in the source)) of the same substance?
**A.** no leukemic animals could be found on days 5 and 15

**Q.** And the leukemic animals (Rauscher leukemia virus; [3])?
**A.** 4 out of 6

**Q.** What about the mean spleen weight (Rauscher leukemia virus; [3]) of the same substance?
**A.** 1.1 grams

**Q.** What about the leukemic animals (Rauscher leukemia virus; [4]) of the same substance?
**A.** 5 out of 6

**Q.** What about the mean spleen weight (Rauscher leukemia virus; [4]) of the same substance?
**A.** 1.3 grams

**Q.** What about the mean spleen weight (Rauscher leukemia virus; group 2, pre-treated, 5 injections, FIG. 45) of the same substance?
**A.** 1.5 grams

**Q.** And the leukemic animals (Rauscher leukemia virus; [5])?
**A.** 5 out of 6

**Q.** What about the mean spleen weight (Rauscher leukemia virus; [5]) of the same substance?
**A.** 1.1 grams

**Q.** What about the mean spleen weight (Rauscher leukemia virus; group 3, pre-treated, 4 injections, FIG. 45) of the same substance?
**A.** 1.5 grams

**Q.** And the mean spleen weight (Rauscher leukemia virus; group 4, pre-treated, 3 injections, FIG. 45)?
**A.** 1.3 grams

**Q.** What about the mean spleen weight (Rauscher leukemia virus; group 5, once before infection and five times later in four day intervals) of the same substance?
**A.** approximately 1.3 grams

**Q.** And the “number of leukemic animals” value (Rauscher leukemia virus; group 6, day 15, ten analyzed)?
**A.** one

**Q.** And the mean spleen weight (Rauscher leukemia virus; group 6, single injection 12 hours before infection)?
**A.** 1.1 grams

**Q.** And the mean spleen weight (Rauscher leukemia virus; group 7, single injection 24 hours before infection)?
**A.** 0.7 grams

**Q.** And the “animals that develop leukemia” value (Rauscher leukemia virus; group 8, day 21)?
**A.** 7 out of 10

**Q.** And the mean spleen weight (Rauscher leukemia virus; group 8, day 21)?
**A.** 1.2 grams

**Q.** And the mean spleen weight (Rauscher leukemia virus; group 8, single injection 6 hours before infection)?
**A.** 0.9 grams

**Q.** And the “development of leukemia, in words” value (Rauscher leukemia virus; pre-treated animals, FIG. 45)?
**A.** nearly all of the pre-treated animals also developed leukemia

**Q.** What about the “reduction in virus load” value ([1]; FIV model, summary) of the same substance?
**A.** 50%

**Q.** And the “amplification of FIV specific sequences, in words” value ([1]; cat G, day 42 and following days)?
**A.** a reduced amplification could already be seen in the sample from day 42 and the following days

**Q.** And the “amplification of FIV specific sequences, late samples, in words” value ([1]; cat M, days 56 and 116)?
**A.** reduced amplification

**Q.** And the “reduction of the virus load” value ([1]; cat M, days 56 and 116)?
**A.** ≥ 50%
